The source of these data is publication PMC11258623 (ESMO Open, 2024).

Data set [1] in a line: Paclitaxel plasma pharmacokinetics. It is filed as in vivo, human. The following applies: paclitaxel 60 mg/m^2; with daily oral TAK-659.
The test system of the next data set is CYP3A4. The following applies: overlapping elimination mechanisms; cited from earlier work.
For data set [2], the system named is patients with advanced solid tumors. It counts as in vivo, human.
The test system of data set [3] is patients with acute myeloid leukemia (AML). The following applies: TAK-659 monotherapy, doses of up to 160 mg daily; cited from earlier work.
Data set [4] in a line: TAK-659 plasma pharmacokinetics. It counts as in vivo, human. The following applies: for AUC0-t increase from day 1 to day 15 / clearance decrease from day 1 to day 15: with paclitaxel.

`CC(=O)O[C@H]1C(=O)[C@@]2(C)[C@H]([C@H](OC(=O)c3ccccc3)[C@]3(O)C[C@H](OC(=O)[C@H](O)[C@@H](NC(=O)c4ccccc4)c4ccccc4)C(C)=C1C3(C)C)[C@]1(OC(C)=O)CO[C@@H]1C[C@@H]2O` [Paclitaxel, paclitaxel, reference compound]: in data set [1], the “increase in exposure (AUC), cycle 1 day 15 compared with cycle 1 day 1” value is listed as approximately 28% and the “reduction in clearance, cycle 1 day 15 compared with cycle 1 day 1” value was approximately 20%. Also, the “substrate for CYP3A4, a major drug metabolizing enzyme” value with CYP3A4 is reported as “substrates”. Besides, the “patients with paclitaxel dose reduced” value in data set [2] (Nine of 49 patients, given with TAK-659) was found to be 18%.
Turning to `Cn1cc(-c2nc(N[C@@H]3CCCC[C@@H]3N)c(F)c3c2C(=O)NC3)cn1` [TAK-659, mivavotinib], in data set [3], the MTD result is “not reached”. Further, the “increase in terminal elimination half-life from day 1 to day 15” value in data set [4] (60-mg dosing cohort, not statistically significant (P = 0.1650)) worked out at 41%. The “AUC0-t increase from day 1 to day 15” value came to 40% in data set [4] (60-mg dosing group), 66% in data set [4] (80-mg dosing group) and 91% in data set [4] (100-mg dosing group). Besides, the results for the “clearance decrease from day 1 to day 15” value in data set [4] (60-mg dosing group), in data set [4] (80-mg dosing group) and in data set [4] (100-mg dosing group) were 36%, 31% and 46%, respectively. Also, the “substrate for CYP3A4, a major drug metabolizing enzyme” value with CYP3A4 is given as “substrates”. Further, the “patients with dose of TAK-659 reduced” value in data set [2] (Six of 49 patients, given with paclitaxel) stood at 12%. The “recommended phase II dose of TAK-659” value in data set [2] (oral, combined with paclitaxel) was determined as 80 mg daily. For the same molecule, the “patients who needed a second dose reduction of TAK-659” value in data set [2] (two of 49 patients, given with paclitaxel) is listed as 4%.
